PMC4503722, “Novel Phenotypic Outcomes Identified for a Public Collection of Approved Drugs from a Publicly Accessible Panel of Assays” (PLoS ONE, 2015)
Structures can show the parent of a compound that is named as a salt. Where two headings read alike, the source gives them in different places.

Key:
Assay in all cases: cells
[1] = test system: nuclear β-catenin in C2C12 cells; assay type: cell-based
HCT116 = assay type: cell-based
DLD-1 = assay type: cell-based
NCI-H716 cells = assay type: cell-based, Human
INS-1E cells = assay type: cell-based, rat
SW480 = assay type: cell-based
[2] = test system: HCT116 cells treated with a GSK3β inhibitor; assay type: cell-based
HeLa cells = assay type: cell-based; conditions: Homo sapiens, HeLa, HeLa, read-out: CellCycle G2/M
[3] = test system: endothelial tube formation in co-cultures of ECFCs and ADSCs treated with VEGF; assay type: cell-based, human
[4] = Homo sapiens, HCT-116, 72 h, read-out: HCT-116 viab. IC50, Table 2, basal, 72 h, Cell TiterGlo, non-adherent, 20 coded
[5] = Homo sapiens, HCT-116, basal, HCT116, read-out: Basal_Viability ATP HCT116
[6] = Homo sapiens, DLD-1, 72 h, Table 2, 72 h, Cell TiterGlo, non-adherent, 20 coded, read-out: DLD-1 viab. IC50
[7] = Homo sapiens, DLD-1, basal, DLD-1, read-out: Basal_Viability ATP DLD-1
[8] = Homo sapiens, NCI-H716, read-out: GLP1 sec. EC50
[9] = Rattus norvegicus, INS-1E, read-out: Ins. sec. EC50
[10] = Homo sapiens, SW480, 72 h, Table 2, 72 h, Cell TiterGlo, non-adherent, 20 coded, read-out: SW480 viab. IC50
[11] = Homo sapiens, SW480, basal, SW480, read-out: Basal_Viability ATP SW480
[12] = Homo sapiens, HCT-116, read-out: HCT-116 (GSK3β) viab. IC50, Table 2, GSK3β inhibitor LY2090314 20 nM, 72 h, Cell TiterGlo, 20 coded
[13] = S2 Table, 20 = no response at highest concentration
[14] = Mus musculus, C2C12, S2 Table, module primary assay, 20 / 20.1 codes per legend, read-out: Wnt Pathway
[15] = Homo sapiens, NCI-H716, read-out: GLP 1 Secretion
[16] = Rattus norvegicus, INS-1E, read-out: Insulin Secretion
[17] = Homo sapiens, HCT-116, HCT116 pretreated with GSK3b inhibitor, read-out: GSK3b inh pretreated_Viability ATP HCT116
[18] = Homo sapiens; read-out: Anti-Angiogenesis
[19] = Mus musculus, C2C12, IC50 / EC50, C2C12 beta-catenin translocation, read-out: Wnt Pathway
[20] = Homo sapiens, HCT-116, basal, read-out: Basal_Viability ATP HCT116
[21] = Homo sapiens, DLD-1, basal, read-out: Basal_Viability ATP DLD-1
[22] = Homo sapiens, IC50 / EC50, NCI-H716, read-out: GLP 1 Secretion
[23] = Rattus norvegicus, IC50 / EC50, INS-1E, read-out: Insulin Secretion
[24] = Homo sapiens, SW480, basal, read-out: Basal_Viability ATP SW480
[25] = Homo sapiens, HCT-116, GSK3b inhibitor pretreated, read-out: GSK3b inh pretreated_Viability ATP HCT116
[26] = Homo sapiens, IC50 / EC50; endothelial tube area, ADSC/ECFC co-culture; read-out: Anti-Angiogenesis

Cc1nc(Nc2ncc(C(=O)Nc3c(C)cccc3Cl)s2)cc(N2CCN(CCO)CC2)n1 [dasatinib, reference compound]
EC50 ([1]; Mus musculus, C2C12, read-out: Wnt Pathway): 0.0067 µM | EC50 ([1]; Mus musculus, C2C12, read-out: Wnt pot. EC50): 0.007 µM | IC50 (HCT116; [4]): 11.9 µM | IC50 (HCT116; [5]): 11.9 µM | IC50 (DLD-1; [6]): 3.5 µM | IC50 (DLD-1; [7]): 3.52 µM | EC50 (NCI-H716 cells; [8]): > 10 µM | EC50 (INS-1E cells; [9]): > 10 µM | IC50 (SW480; [10]): 7 µM | IC50 (SW480; [11]): 7.02 µM | IC50 [2, 12]: > 20 µM | EC50 (HeLa cells; [13]): > 10 µM | IC50 ([3]; Homo sapiens; read-out: Anti-Angio IC50): > 10 µM

O=c1[nH]c(=O)n([C@H]2C[C@H](O)[C@@H](CO)O2)cc1I [idoxuridine]
EC50 [1, 14]: > 10 µM | IC50 (HCT116; [5]): > 20 µM | IC50 (DLD-1; [7]): > 20 µM | EC50 (NCI-H716 cells; [15]): > 10 µM | EC50 (INS-1E cells; [16]): > 10 µM | IC50 (SW480; [11]): > 20 µM | IC50 [2, 17]: > 20 µM | EC50 (HeLa cells; [13]): > 10 µM | IC50 [3, 18]: 0.681 µM

O=C1Nc2ccc(Cl)cc2[C@@](C#CC2CC2)(C(F)(F)F)O1 [efavirenz, reference compound]
EC50 [1, 19]: > 10 µM | IC50 (HCT116; [20]): 6.17 µM | IC50 (DLD-1; [21]): > 20 µM | activity in the GLP-1 secretion assay (in words) (NCI-H716 cells): exhibited activity in the GLP-1 secretion assay | EC50 (NCI-H716 cells; [22]): 2.48 µM | EC50 (INS-1E cells; [23]): 3.87 µM | IC50 (SW480; [24]): 4.61 µM | IC50 [2, 25]: 7.3 µM | IC50 [3, 26]: > 10 µM

CC(=O)N(O)CCCCCNC(=O)CCC(=O)N(O)CCCCCNC(=O)CCC(=O)N(O)CCCCCN [Deferoxamine]
EC50 [1, 14]: > 10 µM | IC50 (HCT116; [5]): 8.55 µM | IC50 (DLD-1; [7]): > 20 µM | EC50 (NCI-H716 cells; [15]): > 10 µM | EC50 (INS-1E cells; [16]): > 10 µM | IC50 (SW480; [11]): > 20 µM | IC50 [2, 17]: > 20 µM | EC50 (HeLa cells; [13]): > 10 µM | IC50 [3, 18]: 4.53 µM

CCN(CC)CCNC(=O)c1c(C)[nH]c(/C=C2\C(=O)Nc3ccc(F)cc32)c1C [sunitinib, reference compound]
EC50 ([1]; Mus musculus, C2C12, Table 2, C2C12, […], 20 / 20.1 coded, read-out: Wnt pot. EC50): > 10 µM | IC50 (HCT116; [4]): 2.3 µM | IC50 (HCT116; [20]): 2.31 µM | IC50 (DLD-1; [6]): 1.6 µM | IC50 (DLD-1; [21]): 1.63 µM | EC50 (NCI-H716 cells; [8]): > 10 µM | EC50 (INS-1E cells; [9]): > 20 µM | IC50 (SW480; [10]): 2.8 µM | IC50 (SW480; [24]): 2.76 µM | IC50 [2, 12]: 0.36 µM | IC50 [2, 25]: 0.361 µM | EC50 (HeLa cells; IC50 / EC50): > 10 µM | IC50 ([3]; Homo sapiens, read-out: Anti-Angio IC50): 0.025 µM | IC50 ([3]; Homo sapiens, read-out: Anti-Angiogenesis): 0.0254 µM

Nc1cc(C(F)(F)F)ccc1S
EC50 ([1]; S2 Table, module primary assay, 20 / 20.1 codes per legend, read-out: Wnt Pathway): > 10 µM | IC50 (HCT116; basal, HCT116, read-out: Basal_Viability ATP HCT116): > 20 µM | IC50 (DLD-1; basal, DLD-1, read-out: Basal_Viability ATP DLD-1): > 20 µM | EC50 (NCI-H716 cells; read-out: GLP 1 Secretion): 1.16 µM | EC50 (INS-1E cells; S2 Table, module primary assay, 20 / 20.1 codes per legend, read-out: Insulin Secretion): > 10 µM | IC50 (SW480; basal, SW480, read-out: Basal_Viability ATP SW480): > 20 µM | IC50 ([2]; HCT116 pretreated with GSK3b inhibitor, read-out: GSK3b inh pretreated_Viability ATP HCT116): > 20 µM | IC50 ([3]; read-out: Anti-Angiogenesis): > 10 µM

Oc1ccc2[nH]cc(CCCCN3CC=C(c4ccccc4)CC3)c2c1 [Roxindole hydrochloride]
EC50 ([1]; read-out: Wnt Pathway): > 10 µM | IC50 (HCT116; read-out: Basal_Viability ATP HCT116): 2.5 µM | IC50 (DLD-1; read-out: Basal_Viability ATP DLD-1): 4.54 µM | EC50 (NCI-H716 cells; read-out: GLP 1 Secretion): > 10 µM | EC50 (INS-1E cells; read-out: Insulin Secretion): > 10 µM | IC50 (SW480; read-out: Basal_Viability ATP SW480): 2.47 µM | IC50 ([2]; read-out: GSK3b inh pretreated_Viability ATP HCT116): 3.32 µM | IC50 ([3]; read-out: Anti-Angiogenesis): 4.04 µM

CC1=C(C(=O)OC(C)C)C(c2cccc([N+](=O)[O-])c2)C(C(=O)OC2CN(C(c3ccccc3)c3ccccc3)C2)=C(N)N1 (stereo not drawn) [Azelnidipine]
EC50 [1, 19]: > 10 µM | IC50 (HCT116; [20]): 3.69 µM | IC50 (DLD-1; [21]): 5.1 µM | EC50 (NCI-H716 cells; [22]): 1.23 µM | EC50 (INS-1E cells; [23]): > 10 µM | IC50 (SW480; [24]): 3.84 µM | IC50 [2, 25]: 5.5 µM | IC50 [3, 26]: 3.58 µM
